{"source": "patent US7268124B2", "about": "“Geranylgeranyl pyrophosphate synthase inhibitors” (University of Iowa Research Foundation, priority 2004, dated 2007)", "assay_type_in_all_cases": "biochemical", "key": {"FPP synthase": {"molecular_target": "T1, FPP synthase (Homo sapiens, UniProt P14324)", "T1 sequence (P14324 1-419)": "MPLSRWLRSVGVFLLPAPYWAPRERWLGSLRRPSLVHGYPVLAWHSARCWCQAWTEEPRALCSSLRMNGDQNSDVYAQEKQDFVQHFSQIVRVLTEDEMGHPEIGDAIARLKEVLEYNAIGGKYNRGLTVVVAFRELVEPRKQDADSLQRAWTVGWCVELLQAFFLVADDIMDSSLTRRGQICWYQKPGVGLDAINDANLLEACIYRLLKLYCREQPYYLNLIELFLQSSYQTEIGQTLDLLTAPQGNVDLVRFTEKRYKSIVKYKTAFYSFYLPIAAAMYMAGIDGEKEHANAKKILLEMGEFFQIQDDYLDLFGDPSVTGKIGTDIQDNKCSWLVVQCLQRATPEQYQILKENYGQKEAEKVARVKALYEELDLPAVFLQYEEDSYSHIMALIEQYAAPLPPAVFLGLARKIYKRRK", "assay": "FPP synthase enzyme inhibition", "settings": "mammalian enzyme; also no inhibition at 1 to 10 nanomolar; read-out: FPP synthase: not inhibited at concentrations as high as", "excerpt": "(§1) The ability of a compound of the invention to act as an inhibitor of geranylgeranyl pyrophosphate synthase may be determined using pharmacological models which are well known to the art, for example see Holstein, S. A., et al., Biochemistry 2003, 42, 4384-4391; and Ericsson et al, J. Biological Chemistry, 1993, 268, 832-838. The ability of a compound to inhibit FPP synthase, FPTase, and GGPTase can also be determined using pharmacological models which are well known to the art. The selectivity of a compound as an inhibitor of geranylgeranyl pyrophosphate synthase can be evaluated by comparing it's inhibitory activity against this enzyme with it's activity against another enzyme."}, "FPTase": {"molecular_target": "FPTase (Homo sapiens, UniProt P49356)", "assay": "FPTase enzyme inhibition", "settings": "mammalian enzyme; also no inhibition at 1 to 10 nanomolar; read-out: FPTase: not inhibited at concentrations as high as", "excerpt": "as §1, with “enzyme. In one embodiment of the invention, the compound of the invention is at least 2-fold selective for inhibiting geranylgeranyl pyrophosphate synthase compared to farnesylpyrophosphate. In another embodiment the compound is at least 10-fold selective for inhibiting geranylgeranyl pyrophosphate synthase compared to farnesylpyrophosphate. In another embodiment the compound is at least about 100-fold selective for inhibiting geranylgeranyl pyrophosphate synthase compared to farnesylpyrophosphate. In another embodiment of the invention, the compound of the invention is at least 2-fold selective for inhibiting geranylgeranyl pyrophosphate synthase compared to FPTase or GGPTase. […]” for “enzyme.”"}, "mammalian GGPP synthase": {"molecular_target": "T2, mammalian GGPP synthase (Homo sapiens, UniProt O95749)", "T2 sequence (O95749 1-300)": "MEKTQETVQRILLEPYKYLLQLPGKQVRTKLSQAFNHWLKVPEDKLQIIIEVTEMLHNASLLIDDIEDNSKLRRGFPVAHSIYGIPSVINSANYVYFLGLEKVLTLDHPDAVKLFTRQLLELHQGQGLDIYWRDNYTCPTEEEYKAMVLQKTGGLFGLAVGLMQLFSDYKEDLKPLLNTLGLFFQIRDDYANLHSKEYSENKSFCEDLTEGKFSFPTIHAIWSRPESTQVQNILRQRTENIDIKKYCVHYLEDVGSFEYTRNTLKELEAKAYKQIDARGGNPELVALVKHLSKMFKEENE", "assay": "GGPP synthase enzyme inhibition", "settings": "read-out: concentration range that inhibits GGPP synthase by 50%", "excerpt": "as §1"}}, "note": "Counter-ions that a name gives are not always drawn."}
{"smiles": "CC(C)=CCC/C(C)=C/CC(C/C=C(\\C)CCC=C(C)C)(P(=O)(O)O)P(=O)(O)O", "note": "[Compound 12, 1-(3,7-dimethyl-octa-2,6-dienyl)-4,8-dimethyl-nona-3,7-dienyl-1,1-bisphosphonic acid, tetrasodium salt]", "values": [{"measurement": "IC50", "setting": "FPP synthase", "result": "> 50", "unit": "µM"}, {"measurement": "IC50", "setting": "FPTase", "result": "> 50", "unit": "µM"}]}
{"smiles": "CC(C)=CCC/C(C)=C/CC(C/C=C(\\C)CCC=C(C)C)(P(=O)(OCOC(=O)C(C)(C)C)OCOC(=O)C(C)(C)C)P(=O)(OCOC(=O)C(C)(C)C)OCOC(=O)C(C)(C)C", "note": "[Compound 13, tetrapivaloyloxymethyl (E)-1,1-bis(4,8-dimethyl-nona-3,7-dienyl)-1,1-bisphosphonate]", "values": [{"measurement": "IC50", "setting": "mammalian GGPP synthase", "result": "0.001 to 0.01", "unit": "µM"}, {"measurement": "IC50", "setting": "FPP synthase", "result": "> 50", "unit": "µM"}, {"measurement": "IC50", "setting": "FPTase", "result": "> 50", "unit": "µM"}]}
